Laboratory results published in the RepoRT retention time repository (doi:10.1021/acs.analchem.2c02893).

Test: RP, Thermo Scientific Acclaim RSLC 120 C18, 100 × 2.1 mm, 2.2 µm, 30 °C, 0.2 mL/min, estimated dead time 1.1 min; A: 90% water + 10% methanol + 0.01% formic acid + 5 mM ammonium formate, pH 3.61; B: methanol + 0.01% formic acid + 5 mM ammonium formate, pH 3.61; gradient (min/%B) 0/1 1/1 2/39 13/99.9 15/99.9 15.1/1 20.1/1
Settings: stereoisomer not certain

SMILES | LC retention time
COP(=O)(OC)OC(=CCl)c1ccc(Cl)cc1Cl [Dimethylvinphos] | 9.86 min
CCC1(c2ccc(N)cc2)CCC(=O)NC1=O (configuration not stated) [Aminoglutethimide] | 4.99 min
CNC(=O)CSP(=O)(OC)OC [Omethoate] | 3.35 min
CN(C)C1CSSSC1 [Thiocyclam] | 3.16 min
COc1cc(OC)nc(NC(=O)NS(=O)(=O)c2ncccc2OCC(F)(F)F)n1 [Trifloxysulfuron] | 8.11 min
COc1cc(OC)nc(NC(=O)NS(=O)(=O)c2ncccc2C(=O)N(C)C)n1 [Nicosulfuron] | 6.62 min
CC(Cc1ccc2c(c1)OCO2)N(C)C (configuration not stated) [MDDMA] | 4.08 min
C=C1CC(=CC)C(=O)OC2CC[N+]3([O-])CC=C(COC(=O)C1(C)O)C23 (configuration not stated) [Seneciphylline-N-oxide] | 4.5 min
O=C1Nc2ccc(Br)cc2C(c2ccccc2Cl)=NC1O (configuration not stated) [Phenazepam- 3-Hydroxy] | 8.34 min
CCCCCn1cc(C(=O)c2ccc(F)c3ccccc23)c2ccccc21 [JWH-412] | 12.8 min
Cc1ccc(NC(=O)N(C)C)cc1Cl [Chlorotoluron] | 7.98 min
Fc1ccc(C2(Cn3cncn3)OC2c2ccccc2Cl)cc1 (configuration not stated) [Epoxiconazole] | 10.3 min
O=C(O)CCCn1cc(C(=O)c2cccc3ccccc23)c2ccccc21 [JWH-073-M-N-Butanoic acid] | 9.33 min
C=C(C)C1CCC(C)=CC1c1c(O)cc(CCCCC)cc1O (configuration not stated) [Cannabidiol] | 12.7 min
CC1(C)OC(c2ccco2)CN1C(=O)C(Cl)Cl (configuration not stated) [Furilazole] | 7.92 min
CCOP(=S)(OCC)SCCS(=O)(=O)CC [Disulfoton-sulfone] | 8.02 min
NNC(N)=O [Semicarbazide (SEM)] | 1.33 min
CC(=O)OC1CCC2C3CCC4CC(=O)C=C(C)C4(C)C3CCC12C (configuration not stated) [Metenolone acetate] | 12.5 min
O=C(Oc1cccc2cccnc12)c1cn(Cc2ccc(F)cc2)c2ccccc12 [FUB-PB-22] | 11.1 min
NC(=O)CS(=O)C(c1ccccc1)c1ccccc1 (configuration not stated) [Modafinil] | 6.76 min
CCc1cc2c(s1)N(C)C(=O)CN=C2c1ccccc1Cl [Clotiazepam] | 10.2 min
CCC=CCC1=C(C)C(OC(=O)C2C(C=C(C)C)C2(C)C)CC1=O (configuration not stated) [Pyrethrins: Jasmolin I] | 13.3 min

SMILES | LC retention time
Nc1c([N+](=O)[O-])ccc(Oc2ccccc2)c1Cl [Aclonifen] | 10.9 min
CNC(CC(C)C)C1(c2ccc(Cl)cc2)CCC1 (configuration not stated) [Sibutramine-Nor] | 8.68 min
COC(=O)C(NC(=O)c1nn(CC2CCCCC2)c2ccccc12)C(C)C (configuration not stated) [MA-CHMINACA] | 12.4 min
CN1CCN2c3ncc(O)cc3Cc3ccccc3C2C1 (configuration not stated) [Mirtazapine- 8-OH] | 4.54 min
COc1nc(C)nc(NC(=O)NS(=O)(=O)c2ccccc2Cl)n1 [Chlorsulfuron] | 6.54 min
CC(N)Cc1c2ccoc2c(Br)c2ccoc12 (configuration not stated) [Bromodragonfly] | 7.41 min
O=C(c1ccc(Cl)cc1)c1ccc(Cl)cc1 [Benzophenone-p.p-Dichloro] | 11.9 min
CCCCCn1cc(C(=O)c2ccccc2OC)c2ccccc21 [RCS-4-ortho] | 11.2 min
Nc1c(Cl)c(F)nc(OCC(=O)O)c1Cl [Fluroxypyr] | 5.43 min
COc1cc(CCN)c(OC)cc1I [2C-I] | 6.06 min
C=CCN(CC=C)C(=O)CCl [Allidochlor] | 6.37 min
CC(C(=O)c1ccccc1)N1CCCC1 (stereo not drawn) [PPP- alpha] | 4.01 min
N=C1NC(=O)C(c2ccccc2)O1 (configuration not stated) [Pemoline] | 4.34 min
CCOP(=O)(OCC)OP(=O)(OCC)OCC [TEPP] | 6.49 min
CN1CCC23c4c5ccc(OCCN6CCOCC6)c4OC2C(O)C=CC3C1C5 (configuration not stated) [Pholcodine] | 2.73 min
C#CC[N+](C)([O-])C(C)Cc1ccccc1 (configuration not stated) [Deprenyl-N-oxide] | 5.33 min
N#Cc1nn(-c2c(Cl)cc(C(F)(F)F)cc2Cl)c(N)c1SC(F)(F)F [Fipronil-sulfide] | 10.8 min
COC=C(C(=O)OC)c1ccccc1COc1cccc(C(F)(F)F)n1 [Picoxystrobin] | 10.5 min
CC1C(=O)OC2CCN3CC=C(COC(=O)C(C)(O)C1(C)O)C23 (configuration not stated) [Monocrotaline] | 2.92 min
COP(=O)(OC)OC(C)=CC(=O)N(C)C [Dicrotophos] | 4.5 min
CCC(NC)C(=O)c1ccc2c(c1)OCO2 (configuration not stated) [Butylone] | 4.34 min

Further lines, results first:

LC retention time | SMILES
5.15 min | CN(C)CCCC1(c2ccc(F)cc2)OCc2cc(C(N)=O)ccc21 (configuration not stated) [Citalopram amide]
6.72 min | CC(C)(C)N1CCC(c2ccccc2)(c2ccccc2)CC1 [Budipine]
8.04 min | CCN(CC)CCOCCOC(=O)C(CC)(CC)c1ccccc1 [Oxeladin]
5.28 min | CC(COc1ccccc1)NC(C)C(O)c1ccc(O)cc1 (configuration not stated) [Isoxsuprine]
5.24 min | CCc1cccc(C)c1NC(=O)CS(=O)(=O)O
4.09 min | O=[N+]([O-])c1cncn1CCN1CCOCC1 [Nimorazole]
10.5 min | CN(C)CCOc1ccc(C(=C(CCCl)c2ccccc2)c2ccccc2)cc1 [Toremifene]
5.99 min | O=c1cn[nH][nH]1 [1 2 3-triazole-5-OH (1.2.3)]
8.28 min | OCCOCCN1CCN(C(c2ccccc2)c2ccc(Cl)cc2)CC1 (configuration not stated) [Hydroxyzine]
6.08 min | CC1(C)OC2COC3(COS(N)(=O)=O)OC(C)(C)OC3C2O1 (configuration not stated) [Topiramate]
9.86 min | C(=Cc1ccccc1)CN1CCN(C(c2ccccc2)c2ccccc2)CC1 [Cinnarizine]
4.16 min | CCN(CC)CCCC(C)Nc1ccnc2cc(Cl)ccc12 (configuration not stated) [Chloroquine]
3.03 min | ON=Cc1cc[n+](COC[n+]2ccc(C=NO)cc2)cc1 [Obidoxime]
10.6 min | CCOC(=O)NCCOc1ccc(Oc2ccccc2)cc1 [Fenoxycarb]
10.2 min | OCCN1CCN(CCC=C2c3ccccc3Sc3ccc(C(F)(F)F)cc32)CC1 [Flupentixol]
4.46 min | CC(=O)OCCC(SC(C)=O)=C(C)N(C=O)Cc1cnc(C)nc1N [Acetiamine]
4.09 min | Cn1c(=O)c2c(ncn2CCO)n(C)c1=O [Etofylline]
4.63 min | Cc1cc(O)cc(C)c1S(C)=O (configuration not stated) [Methiocarb-sulfoxide phenol]
4.54 min | Cc1cc(NS(=O)(=O)c2ccc(NO)cc2)no1 [Sulfamethoxazole hydroxylamine]
5.02 min | COc1cc2c(cc1OC)CC(=O)N(CCCN(C)CC1Cc3cc(OC)c(OC)cc31)CC2 (configuration not stated) [Ivabradine]
2.37 min | NC(=O)c1ccc(N)cc1 [4-Aminobenzamide]
3.99 min | CC(C)(C)Nc1nc(N)[nH]c(=O)n1 [Terbuthylazine-desethyl-2-hydroxy]

LC retention time | SMILES
4.39 min | Cc1cc(NS(=O)(=O)c2ccc(N)cc2)on1 [Sulfamethoxazole (Impurity F)]
11.2 min | CCCN(CCOc1c(Cl)cc(Cl)cc1Cl)C(=O)NC=O
8.54 min | CN(C)CC(CN1c2ccccc2Sc2ccccc21)N(C)C (configuration not stated) [Promazine-amino]
4.24 min | COCCOc1c(OC)cc(Cc2cnc(N)nc2N)cc1OC [Tetroxoprim]
5.54 min | COCCN(C(=O)CS(=O)(=O)O)c1c(C)cccc1C [Dimethachlor-ESA]
6.44 min | O=C(NCC1CCCCN1)c1cc(OCC(F)(F)F)ccc1OCC(F)(F)F (configuration not stated) [Flecainide]
8.2 min | CC(C)c1nc(N(C)S(C)(=O)=O)nc(-c2ccc(F)cc2)c1C=CC(O)CC(O)CC(=O)O (configuration not stated) [Rosuvastatin]
10.1 min | CN(C)c1nc(N(C)C)nc(N(C)C)n1 [Altretamine]
4.91 min | C=C1CC23CC1(O)CCC2C12C=CC(O)C(C)(C(=O)O1)C2C3C(=O)O (configuration not stated) [Gibberellic acid]
1.79 min | NCC1CCC(C(=O)O)CC1 (configuration not stated) [Tranexamic acid]
9.79 min | CC(C)(C)NC(=O)C1CN(Cc2cccnc2)CCN1CC(O)CC(Cc1ccccc1)C(=O)NC1c2ccccc2CC1O (configuration not stated) [Indinavir]
10.1 min | CC(=O)C1(O)CCC2C3C=C(Cl)C4=CC(=O)C5CC5C4(C)C3CCC21C (configuration not stated) [Cyproterone]
7.85 min | CC12C=CC(=O)C=C1CCC1C2C(=O)CC2(C)C1CCC2(O)C(=O)CO (configuration not stated) [Prednisone]
8.18 min | CCCc1nn(C)c2c(=O)[nH]c(-c3cc(C(=O)CN4CCN(CC)C(=O)C4=O)ccc3OCC)nc12 [Dioxohongdenafil]
8.24 min | CC1=C(CC(=O)O)c2cc(F)ccc2C1=Cc1ccc(S(C)=O)cc1 (configuration not stated) [Sulindac]
5.42 min | CN1Cc2c(N)cccc2C(c2ccccc2)C1 (configuration not stated) [Nomifensine]
9.85 min | c1ccc2sc(SN3CCOCC3)nc2c1 [2-Morpholinothiobenzothiazole]
7.08 min | O=C1NC(=O)C(c2ccccc2)(c2ccccc2)N1 [Phenytoin]
12.5 min | CCOCCc1ccc(OCCNc2ncnc(CC)c2Cl)c(C)c1C [Pyrimidifen]
2.18 min | NNC(=O)c1ccncc1 [Isoniazide]
4.42 min | CC12CCC(=O)C=C1C(O)CC1C2C(O)CC2(C)C1CCC2(O)C(=O)CO (stereo not drawn) [6-beta-Hydroxycortisol]
8.35 min | C#CC(C)N(C)C(=O)Nc1ccc(Cl)cc1 (configuration not stated) [Buturon]
